Test results reported in US20130266629A1, “MEDICAL DEVICE HAVING A SURFACE COMPRISING ANTIMICROBIAL METAL” (DENTSPLY INTERNATIONAL INC., priority 2012, published 2013).

Key:
MRSA = format: cell-based, Staphylococcus aureus; details: 24 hours at 35±2° C.
Francisella novicida = details: Olakanmi et al (2010); cited from earlier work
PA01 = test: Minimum Inhibitory Concentration, fivefold dilution, no visual growth; format: cell-based, Pseudomonas aeruginosa; details: PA01, 24 hours at 35±2° C.
Experimental: (§1) Streak plates and characterization by gram-staining were done. MRSA and PA01 were grown on Tryptic Soy agar (TSA) plates and S. sanguinis on horse blood plates for up to 24 hours whereas P. gingivalis was grown between 4 and 5 days on Fastidious Anaerobic agar (FAA) plates. Fivefold dilution in at least five steps of gallium nitrate (Ga(NO3)3) or bismuth chloride (BiCl3) was done. Bismuth salt had to be suspended in DMSO in order to enable salt to dissolve in culture media.
(§2) Equal amounts of bacterial solution and antimicrobial salt (in fivefold dilution) were mixed and incubated at 35±2° C.: MRSA, PA01, and S. sanguinis for 24 hours and P. gingivalis for […]. After incubation, the concentration where no visual growth could be detected was documented.

P. gingivalis = test: as above; format: cell-based; details: 35±2° C.
Experimental: as §1, §2

S. sanguinis = test: as above; format: cell-based; details: 24 hours at 35±2° C.
Experimental: as §1, §2

Pseudomonas aeruginosa = details: Kaneko et al. (2007); cited from earlier work

Row | SMILES | Minimum Inhibitory Concentration (MIC) (MRSA) [µg/mL] | growth of Francisella novicida (Francisella novicida) | Minimum Inhibitory Concentration (MIC) (PA01) [µg/mL] | Minimum Inhibitory Concentration (MIC) (P. gingivalis) [µg/mL] | Minimum Inhibitory Concentration (MIC) (S. sanguinis) [µg/mL] | growth of Pseudomonas aeruginosa in batch cultures (Pseudomonas aeruginosa)
1 | O=[N+]([O-])[O-].O=[N+]([O-])[O-].O=[N+]([O-])[O-].[Ga+3] [Ga(NO3)3, gallium nitrate] | 1000 | inhibited the growth | 200 | 40 | 1000 | inhibits growth
2 | [Cl][Bi]([Cl])[Cl] [BiCl3, bismuth chloride] |  |  |  | 1000 | 40 | 
